{"source": "patent US10905762B2", "about": "“Targeted nanoparticle conjugates” (CASE WESTERN RESERVE UNIVERSITY, priority 2011, dated 2021)", "key": {"[1]": {"biological_target": "EGFR (Homo sapiens, UniProt P00533)", "details": "binding to the EGFR; read-out: dissociation constant; cited from earlier work"}, "[2]": {"tested_on": "glioma cancer cells", "details": "stated as known; cited from earlier work"}, "[3]": {"tested_on": "9L.E29 cells", "test": "Cell viability assay using Trypan blue", "assay_type": "cell-based, rat", "details": "1 μM of Pc 4 and 1 J/cm^2 of laser power", "description": "Cell viability assays using Trypan blue for EGFpep-Au NP-Pc 4 treated cells further illustrated this point (FIG. 4C), showing not only an increase in the number of dead cancer cells, but possibly different pathways of cell death."}, "[4]": {"tested_on": "9L.E29 cells", "details": "free Pc 4, stated as known; cited from earlier work"}}, "data": [{"substance": "YHWYGYTPQNVI [EGF peptide, YHWYGYTPQNVI-amide]", "values": [{"measurement": "Kd", "setting": "[1]", "result": 22, "unit": "nM"}]}, {"substance": "phthalocyanine 4 [free Pc 4]", "values": [{"measurement": "localization of free Pc 4 (known)", "setting": "[2]", "result": "known to locate in the mitochondria"}, {"measurement": "mode of cell death (Trypan blue staining)", "setting": "[3]", "result": "caused most cancer cells to die very quickly"}, {"measurement": "subcellular localization of Pc 4 (known)", "setting": "[4]", "result": "localize mainly in mitochondria with some additional localization within lysosomes"}]}]}
